Assay results published in patent US11834430B2, “Compounds useful as inhibitors of isoprenylcysteine carboxyl methyltransferase” (AGENCY FOR SCIENCE, TECHNOLOGY AND RESEARCH, priority 2017, dated 2023).
“And” between values parts separate entries of the source, which are not always exact repeats. Equal values may be shown once.

How the values were obtained:
[1] = system: Prelamin A in MIAPaCa-2 cells; experiment: Prelamin A accumulation assay (Western blot); format: cell-based; conditions: various concentrations, 48 hours
Experimental: The MIAPaCa-2 cells were seeded in 6-well plates. After seeding for 24 hours, the cells were treated with either DMSO or varying concentration of the compound and incubated for 48 hours. The cells were trypsinized and the lysate was extracted with RIPA buffer (Santa Cruz). The total protein concentration of lysate is quantified using the standard Bradford assay (Biorad protein assay, microplate standard assay).
Western blot analysis was performed using antibody against Prelamin A in MIAPaCa cells treated with compound at various concentration for 48 hours. 15.0 μg of cell lysate was run on a SDS-PAGE and then transferred to nitrocellulose membrane. The membrane was then incubated in blocking buffer [PBS (phosphate buffered saline) with 0.1% Tween 20 and 5% dry milk] at room temperature for 1 hour, followed by incubation with Prelamin A antibody (rat monoclonal antibody) at 1:2500 dilution in PBS, 0.1% Tween 20 and 5% dry milk overnight at 4° C., followed by three washes (15 minutes each wash) in PBS, 0.1% Tween 20 on the next day.
The nitrocellulose membrane was then incubated with secondary antibody solution at room temperature for 1 hour, washed three times before developed with enhanced Chemiluminescence (ECL) mixture (Amersham, Aylesbury, United Kingdom), incubated for 5 minutes and exposed using Fluor Chem E System instrument (Protein Simple).

[2] = molecular target: human ICMT (Homo sapiens (Human), UniProt O60725); experiment: ICMT biochemical assay (Methyltransferase-Glo); conditions: ICMT membrane extract from Sf-9 cells; 30 min preincubation, 90 min reaction
Chain of human ICMT (O60725 whole entry): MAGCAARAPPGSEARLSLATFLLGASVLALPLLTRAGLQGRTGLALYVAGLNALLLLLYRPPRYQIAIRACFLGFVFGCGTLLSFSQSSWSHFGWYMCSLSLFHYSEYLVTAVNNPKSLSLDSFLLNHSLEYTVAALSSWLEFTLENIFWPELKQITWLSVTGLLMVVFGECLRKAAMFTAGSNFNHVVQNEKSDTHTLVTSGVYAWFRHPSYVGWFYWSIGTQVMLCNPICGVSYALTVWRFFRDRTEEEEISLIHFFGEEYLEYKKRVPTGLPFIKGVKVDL

[3] = system: MIAPaCa-2 cells; experiment: Cell proliferation assay (CellTiter-Glo); format: cell-based; conditions: Homo sapiens, MIA PaCa-2, 72 h, 3 days
Experimental: Cell proliferation assay was performed using CellTiter-Glo Luminescent Cell Viability Assay (Promega) following manufacturer's instructions. The MIAPaCa-2 cells (ATCC) were treated with compounds that were serial diluted in the media (DMEM). Plates were incubated for 3 days at 37° C. in 5% CO2. After 3 days, an equal volume of Cell Titer Glo reagent was added. Plates were rocked on a rotator for 2 hours. 100 μL of each well was transferred to a 96-well opaque plate, and luminescence emitted was measured with the Tecan Safire II.

## Cn1nccc1-c1cc(OCCOc2ccc(C#N)cn2)ccn1 [Compound 71, 6-(2-((2-(1-methyl-1H-pyrazol-5-yl)pyridin-4-yl)oxy)ethoxy)nicotinonitrile]
[1]
  Prelamin A accumulation (Western blot): Prelamin A accumulation
[2]
  IC50: 44 nM and 41 nM
[3]
  GI50: 12700 nM
